# Test results reported in patent US6953786B2, “Compositions comprising plant-derived polyphenolic compounds and inhibitors of reactive oxygen species and methods of using thereof” (The Regents of the University of California, priority 2002, dated 2005).
# Legend:
# caspase-3 = assay: Caspase-3 activity, fluorogenic assay with DEVD-AMC; format: cell-based, rat; conditions: BSp73AS, up to 6 hours, 100 μM, no serum (FIGS. 6B, 6C)
# Method: To determine whether a polyphenolic compound activates caspase-3 activity in a time-dependent manner, the following assay was conducted. BSp73AS cells were cultured for 0, 1, 3, and 6 hours and Mia PACA-2 cells were cultured in the absence of serum or growth factors for 0, 1, 4, 6, and 24 hours in the presence of 100 μM or quercetin, trans-resveratrol, rutin, or control. Caspase-3 activity was measured in cell lysates with a fluorogenic assay using DEVD-AMC as a substrate. The results were normalized to the DEVDase activity in untreated cells.
# To determine whether quercetin activates caspase-3 activity in a dose-dependent manner, the following assay was conducted. Cells were cultured for 6 hours in the absence of serum or growth factors in the presence of 0, 10, 20, 50, and 100 μM of quercetin. Caspase-3 activity was measured in cell lysates with a fluorogenic assay using DEVD-AMC as a substrate. The results were normalized to the DEVDase activity in untreated cells.
# cytochrome c = assay: Mitochondrial cytochrome c release (Western blot); format: cell-based, human; conditions: Mia PACA-2, 24 hours, 100 μM, no serum
# Method: In order to determine the effects polyphenolic compounds have on mitochondrial cytochrome c release and apoptosis, the following assay was conducted. BSp73AS cells were cultured for 6 hours and Mia PACA-2 cells were cultured in the absence of serum or growth factors for 24 hours in the absence or presence of 100 μM of each rutin, trans-resveratrol, genistein, or quercetin. Cells were washed twice with ice-cold PBS, pH 7.2 and resuspended in extraction buffer, about 500 μl, comprising 20 mM HEPES-KOH (pH 7.0), 10 mM KCl, 1 mM NaEGTA, 2 mM MgCl2, 1 mM EDTA, 1 mM DTT, 250 mM sucrose, 1 mM PMSF and protease inhibitors cocktail as provided above. The lysate was incubated for 30 minutes on ice and then homogenized using a glass dounce (80 strokes). Nuclei were removed by centrifugation at 1,000 g for 10 minutes at 4° C. Supernatant was additionally centrifuged for 1 hour at 100,000 g and the resulting supernatant (cytosolic fraction) and pellet (mitochondrial fraction) were collected separately, subjected to SDS-PAGE, and Western blotting using an antibody against cytochrome c. The experiment was repeated twice with similar results.
# In order to determine the role of the cancer cell's PTP in the effects of the polyphenolic compounds on mitochondrial function, caspase-3 activation and apoptosis, we performed the following experiments. Mia PACA-2 cells were cultured in the absence of serum or growth factors for 24 hours in the presence or absence of quercetin (100 μM), trans-resveratrol (100 μM), Z-VAD FMK (50 μM), cyclosporin A (5 μM) and/or aristolochic acid (50 μM). Cells were collected, washed with ice-cold PBS and resuspended in lysis buffer comprising 0.5% Nonidet P-40 or manufactured by the name IGEPAL CA-630, 0.5 mM EDTA, 150 mM NaCl and 50 mM Tris at pH 7.5. Cell lysates were placed for 30 minutes on a rotator at 4° C. and then centrifuged for 15 minutes at 15,000 g. Cytosolic protein extracts (supernatants) were collected, protein concentrations were determined and the extracts were aliquoted and stored at −80° C. Cytosolic extracts were subjected to SDS-PAGE and Western blot was performed with an antibody against cytochrome c. Blots were then stripped and re-probed with an antibody against tubulin to confirm equal protein loading. The experiment was repeated twice with similar results.
# In order to determine the effect of a combination of trans-resveratrol and quercetin on cytochrome c release and caspase-3 activity, the following was conducted. Mia PACA-2 cells were cultured in the absence of serum or growth factors for 24 hours in the presence or absence of trans-resveratrol (25 μM), quercetin (25 μM), or the combination of trans-resveratrol (25 μM) and quercetin (25 μM). Cytosolic extracts were prepared and subject to SDS-PAGE followed by protein transfer. Immunoblot was performed with an antibody against tubulin to confirm equal protein loading.
# Mia PACA-2 cells = assay: Oligonucleosomal DNA fragmentation by cell death ELISA; format: cell-based, human; conditions: Mia PACA-2, 72 hours, with serum; DPI 15 μM, Tiron 10 mM, genistein 100 μM, trans-resveratrol 100 or 50 μM
# Method: Mia PACA-2 cells were cultured for 72 hours in the presence of serum with or without 15 μM DPI, 10 mM Tiron, 100 μM genistein, 100 μM or 50 μM trans-resveratrol, or a combination thereof. Oligonucleosomal DNA fragmentation was measured in cell lysates by cell death ELISA.
# Annexin staining was conducted as described above. Cells were collected, washed with PBS, and centrifuged for 10 min at 200×g. DNA fragmentation was determined using Cell Death Detection ELISA Plus kit (Roche Molecular Biochemicals).
# To determine the role of caspases in the effects of combinations of agents on apoptosis, the effects of caspase-3 activity (DEVDase activity) as well as the effect of the broad spectrum caspase inhibitor, Z-VAD, on apoptosis was measured. Specifically, Mia PACA-2 cells were cultured for 72 hours in the presence of serum with or without 100 μM Z-VAD, 15 μM DPI, 100 μM trans-resveratrol, 100 μM genistein, a combination of trans-resveratrol and DPI, and a combination of genistein and DPI. DEVDase activity was measured in whole cell lysates with a fluorimetric assay. DNA fragmentation was measured in cell lysates by cell death ELISA.
# In particular, Mia PACA-2 cells were cultured for 72 hours in the presence of serum with or without 50 μM trans-resveratrol (RS), 15 μM DPI, a combination of DPI and trans-resveratrol (RS+DPI), 10 μM MG-132 alone and in combination with RS, DPI, and RS+DPI. Internucleosomal DNA fragmentation was measured in cell lysates by cell death ELISA.
SMILES,caspase-3 activation (caspase-3),cytosolic and mitochondrial cytochrome c (cytochrome c),oligonucleosomal DNA fragmentation (apoptosis) (Mia PACA-2 cells)
O=c1c(O)c(-c2ccc(O)c(O)c2)oc2cc(O)cc(O)c12 [quercetin],caused caspase-3 activation,caused increases in cytosolic cytochrome c and decreases in mitochondrial cytochrome c,–
Oc1ccc(/C=C/c2cc(O)cc(O)c2)cc1 [trans-resveratrol],caused caspase-3 activation,caused increases in cytosolic cytochrome c and decreases in mitochondrial cytochrome c,either no or small effects
O=c1c(-c2ccc(O)cc2)coc2cc(O)cc(O)c12 [genistein],–,caused increases in cytosolic cytochrome c and decreases in mitochondrial cytochrome c,either no or small effects
